In patent US20260274814A1, “THIENYL COMPOUNDS FOR THE TREATMENT OF A CENTRAL NERVOUS SYSTEM DISEASE OR DISORDER” (Coreterra Therapeutics, Inc., priority 2023, published 2026):
Counter-ions that a name gives are not always drawn.

System: mice
Test: Neuropharmacological Assay (SmartCube): automated behavioral signature of compound-treated mice compared with a database of reference drug classes
Assay type: in vivo
Conditions: for minimal effective dose: Mus musculus, ip, read-out: MED; for minimal effective dose / MED: minimal effective dose: dose having 45% or more total activity in SmartCube, i.p., if only one dose was tested, that dose is shown; for AD / AG / AN / CE / HL / MS / PS / SH / AP / AX / UK: SmartCube probability class, 3.0 mg/kg dose, i.p. 15 min before the behavioral test
Method in brief: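 Probabilities reflect how closely the digitally recorded behavioural signature at 3.0 mg/kg i.p. matched each reference class (antipsychotic, anxiolytic, antidepressant etc.). Dosing occurred 15 min before testing. Minimal effective dose was the dose giving 45% or more total activity.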

Row | Structure (SMILES) | minimal effective dose [mg/kg] | AD | AG | AN | CE | HL | MS | PS | SH | AP (hydrochloride, 3 mg/kg) | AX (hydrochloride, 3 mg/kg) | UK (hydrochloride, 3 mg/kg) | MED (hydrochloride) [mpk] | UK | CE (hydrochloride, 3 mg/kg) | MED [mpk] | AP | AX | AD (hydrochloride, 3 mg/kg)
1 | CNC1Cc2scc(C(F)(F)F)c2C1 (single isomer, unassigned) [Compound 314, N-methyl-3-(trifluoromethyl)-5,6-dihydro-4H-cyclopenta[b]thiophen-5-amine hydrochloride] | > 3 | ND (^ <4%) | ND (^ <4%) | ND (^ <4%) | ND (^ <4%) | ND (^ <4%) | ND (^ <4%) | ND (^ <4%) | ND (^ <4%) | ND (^ <4%) | ND (^ <4%) | + (≥4%) |  |  |  |  |  |  | 
2 | CNC1Cc2scc(C(F)(F)F)c2C1 (single isomer, unassigned) [Compound 315, N-methyl-3-(trifluoromethyl)-5,6-dihydro-4H-cyclopenta[b]thiophen-5-amine hydrochloride] |  | ND (^ <4%) | ND (^ <4%) | ND (^ <4%) | ND (^ <4%) | ND (^ <4%) | ND (^ <4%) | ND (^ <4%) | ND (^ <4%) | + (≥4%) | ++++ (≥74%) | ND (^ <4%) | 3 |  |  |  |  |  | 
3 | CNC1Cc2scc(C)c2C1 (single isomer, unassigned) [Compound 316, N, 3-dimethyl-5,6-dihydro-4H-cyclopenta[b]thiophen-5-amine hydrochloride] | 3 | ND (^ <4%) | ND (^ <4%) | ND (^ <4%) |  | ND (^ <4%) | ND (^ <4%) | ND (^ <4%) | ND (^ <4%) | ++++ (≥74%) | ND (^ <4%) |  |  | ND (^ <4%) | ND (^ <4%) |  |  |  | 
4 | CNC1Cc2scc(C)c2C1 (single isomer, unassigned) [Compound 317, N, 3-dimethyl-5,6-dihydro-4H-cyclopenta[b]thiophen-5-amine hydrochloride] |  | ND (^ <4%) | ND (^ <4%) | ND (^ <4%) |  | ND (^ <4%) | ND (^ <4%) | ND (^ <4%) | ND (^ <4%) | + (≥4%) | +++ (≥49%) |  |  | ND (^ <4%) | + (≥4%) | 3 |  |  | 
5 | CNC1Cc2cc(C)sc2C1 (single isomer, unassigned) [Compound 318, N, 2-dimethyl-5,6-dihydro-4H-cyclopenta[b]thiophen-5-amine hydrochloride] | 3 | ND (^ <4%) | ND (^ <4%) | ND (^ <4%) |  | ND (^ <4%) | ND (^ <4%) | ND (^ <4%) | ND (^ <4%) | + (≥4%) | + (≥4%) | +++ (≥49%) |  |  | ND (^ <4%) |  |  |  | 
6 | CNC1Cc2cc(C)sc2C1 (single isomer, unassigned) [Compound 319, N, 2-dimethyl-5,6-dihydro-4H-cyclopenta[b]thiophen-5-amine hydrochloride] |  | ND (^ <4%) | ND (^ <4%) | ND (^ <4%) |  | ND (^ <4%) | ND (^ <4%) | ND (^ <4%) | ND (^ <4%) | ND (^ <4%) | ++++ (≥74%) | ND (^ <4%) |  |  | + (≥4%) | 3 |  |  | 
7 | CNC1Cc2scc(C3CC3)c2C1 (single isomer, unassigned) [Compound 320, 3-cyclopropyl-N-methyl-5,6-dihydro-4H-cyclopenta[b]thiophen-5-amine hydrochloride] | > 3 | ND (^ <4%) | ND (^ <4%) | ND (^ <4%) | ND (^ <4%) | ND (^ <4%) | ND (^ <4%) | ND (^ <4%) | ND (^ <4%) | ND (^ <4%) | ND (^ <4%) | ++ (≥24%) |  |  |  |  |  |  | 
8 | CNC1Cc2scc(C3CC3)c2C1 (single isomer, unassigned) [Compound 321, 3-cyclopropyl-N-methyl-5,6-dihydro-4H-cyclopenta[b]thiophen-5-amine hydrochloride] |  | ND (^ <4%) | ND (^ <4%) | ND (^ <4%) | ND (^ <4%) | ND (^ <4%) | ND (^ <4%) | ND (^ <4%) | ND (^ <4%) | + (≥4%) | ++++ (≥74%) | ND (^ <4%) | 3 |  |  |  |  |  | 
9 | CNC1COc2c(C3CC3)csc2C1 (single isomer, unassigned) [Compound 324, 3-cyclopropyl-N-methyl-6,7-dihydro-5H-thieno[3,2-b]pyran-6-amine hydrochloride] | 3 |  | ND (^ <4%) | ND (^ <4%) | ND (^ <4%) | ND (^ <4%) | ND (^ <4%) | ND (^ <4%) | ND (^ <4%) |  |  | ND (^ <4%) |  |  |  |  | ND (^ <4%) | ND (^ <4%) | + (≥4%)
10 | CNC1COc2c(C3CC3)csc2C1 (single isomer, unassigned) [Compound 325, 3-cyclopropyl-N-methyl-6,7-dihydro-5H-thieno[3,2-b]pyran-6-amine hydrochloride] |  |  | ND (^ <4%) | ND (^ <4%) | ND (^ <4%) | ND (^ <4%) | ND (^ <4%) | ND (^ <4%) | ND (^ <4%) |  |  | ++ (≥24%) |  |  |  | 3 | ND (^ <4%) | ND (^ <4%) | ND (^ <4%)
11 | NC1COc2c(C3CC3)csc2C1 (single isomer, unassigned) [Compound 329, 3-cyclopropyl-6,7-dihydro-5H-thieno[3,2-b]pyran-6-amine hydrochloride] | < 3 |  | ND (^ <4%) | ND (^ <4%) | ND (^ <4%) | ND (^ <4%) | ND (^ <4%) | ND (^ <4%) | ND (^ <4%) |  |  | ND (^ <4%) |  |  |  |  | ND (^ <4%) | ND (^ <4%) | ++++ (≥74%)
12 | NC1COc2c(C3CC3)csc2C1 (single isomer, unassigned) [Compound 330, 3-cyclopropyl-6,7-dihydro-5H-thieno[3,2-b]pyran-6-amine hydrochloride] |  |  | ND (^ <4%) | ND (^ <4%) | ND (^ <4%) | ND (^ <4%) | ND (^ <4%) | ND (^ <4%) | ND (^ <4%) |  |  | + (≥4%) | >3 |  |  |  | ND (^ <4%) | ND (^ <4%) | ND (^ <4%)
